The source of these data is patent US8557380B2, “Form of hydroquinone and production thereof” (Rhodia Operations, priority 2006, dated 2013).

Like-named read-outs stand apart in the source and are kept apart here.

The conditions of data set [1]: stirred, final concentration 4.8% by weight. On the procedure:
These measurements correspond to a test which consists in measuring the time necessary to dissolve said amount in water maintained at ambient temperature (20° C.) and kept stirred, for example using a propeller stirrer with 4 inclined blades.

The conditions of data set [2]: particles with dimensions of less than 100 μm. The source says:
The level of the fine particles is defined as the percentage by weight of the particles with dimensions of less than 100 μm.
Particles which pass through a sieve having a mesh size of 100 μm are regarded according to the invention as fine particles.

The conditions of data set [3]: sieve mesh size 2.5 mm. The source says: In order to define the particle size of the product of the invention, the percentage by weight of the particles with dimensions of less than 2.5 mm, that is to say particles which pass through a sieve having a mesh size of 2.5 mm, is also defined.
The conditions of data set [4]: final concentration 2% by weight. On the procedure: A similar test is carried out in order to determine the rate of dissolution of the flakes in acrylic acid.
The test consists in defining the time necessary to dissolve the amount of flakes necessary in order to obtain a final concentration of hydroquinone in the acrylic acid of 2% by weight.

For data set [5] the following is noted: undried product. On the procedure: The densities are measured on an undried product according to the test described in the European Phatmacopeia standard [Volume 1, p. 256 (2004), 5th edition], with the only difference that the 250 ml of test specimen is replaced by a 1 liter test specimen.

For `Oc1ccc(O)cc1` [hydroquinone powder, hydroquinone], the “Dissolution time in water at 20° C. (production of a 4.8% by weight solution)” value in data set [1] is 9 min. Further, the “% by weight of particles passing through a sieve with a mesh size of 100 μm (level of fine particles)” value (“% by weight … (level of fine particles)” for short) in data set [2] (listed as hydroquinone in the powder form) is listed as about 20 % by weight. Moreover, the “percentage by weight of the particles with dimensions of less than 2.5 mm” value in data set [3] turned out to be 100 % by weight. The “Dissolution time in acrylic acid at 20° C. (production of a 2.0% by weight solution)” value in data set [4] was 20 min.
Turning to `Oc1ccc(O)cc1` [Example 4, hydroquinone], in data set [5], the Loose bulk density turned out to be 0.46 g/mL and the Tapped bulk density came to 0.61 g/mL. The “Dissolution time in water at 20° C. (production of a 4.8% by weight solution)” value in data set [1] was determined as 14 min. Moreover, the “% by weight … (level of fine particles)” value in data set [2] amounted to 0.8% by weight. For the same compound, the “Dissolution time in acrylic acid at 20° C. (production of a 2.0% by weight solution)” value in data set [4] turned out to be 30 min.
In data set [5], `Oc1ccc(O)cc1` [Example 5, hydroquinone] displayed a Loose bulk density of 0.53 g/mL and a Tapped bulk density of 0.66 g/mL. Further, in data set [1], the “Dissolution time in water at 20° C. (production of a 4.8% by weight solution)” value is 14 min. Further, the “% by weight … (level of fine particles)” value in data set [2] was 0.9% by weight. Further, in data set [4], the “Dissolution time in acrylic acid at 20° C. (production of a 2.0% by weight solution)” value is listed as 30 min.
In data set [5], `Oc1ccc(O)cc1` [Example 3, hydroquinone] came in with a Loose bulk density of 0.48 g/mL and a Tapped bulk density of 0.67 g/mL. For the same compound, the “Dissolution time in water at 20° C. (production of a 4.8% by weight solution)” value in data set [1] was found to be 18 min. In addition, the “% by weight … (level of fine particles)” value in data set [2] is given as 0.9% by weight. Further, the “Dissolution time in acrylic acid at 20° C. (production of a 2.0% by weight solution)” value in data set [4] came out at 35 min.
In the same order, the values of `Oc1ccc(O)cc1` [Example 1, hydroquinone] are 0.52 g/mL, 0.70 g/mL, 21 min, 0.8% by weight and 45 min.
Regarding `Oc1ccc(O)cc1` [Example 2, hydroquinone], in data set [5], the Loose bulk density turned out to be 0.47 g/mL and the Tapped bulk density worked out at 0.65 g/mL. The “Dissolution time in water at 20° C. (production of a 4.8% by weight solution)” value in data set [1] came out at 15 min. In addition, in data set [2], the “% by weight … (level of fine particles)” value worked out at 0.7% by weight. In addition, the “Dissolution time in acrylic acid at 20° C. (production of a 2.0% by weight solution)” value in data set [4] is given as 30 min.
